Measurements as given in patent US20250026788A1, “PEPTIDES FOR THE TREATMENT OF CHRONICALLY ACTIVE AUTOIMMUNE INFLAMMATION” (advanceCOR GmbH, priority 2021, published 2025).
Ends that are not written are not given here.

Tests used:
[1] = test system: FIA-CIA (bCII- and hFib-immunized mice which develop RA-like arthritis); conditions: for overview of the paws: soft tissue enhancement and lymphocyte infiltration (HE sections): right hind paws; for arthritis score: score 0-16 per mouse
[2] = test system: anti-bCII or anti-hFib antibody titers; experiment: Measurement of mouse antibodies by ELISA in sera of treated FIA-CIA mice; assay type: in vivo; conditions: sera taken on days 35 and 84, 1 mg/kg i.v. on days 14, 35 and 56
Experimental: Serum was collected on days 0, 14, 35 and 56 of the experiment via bleeding of the tail vein. Treatment with peptides 90091, 90578 (at a concentration of 1 mg/kg body weight) or 0.9% NaCl was applied intravenously on day 14, 35 and 56. Mice were randomly distributed to the three treatment groups. Treatment compounds were numbered 1, 2 and 3. To minimize confounders, each of the three mice per cage received a different treatment. All clinical and histological investigators were blinded to the treatment until data analysis was finished. For comparability between the therapy groups, all mice, including the CFA control mice, received a daily dose of 1 mg/kg Metacam® (meloxicam) from day 14 after the first immunization on until the end of the experiment. Mice were killed on day 84 of the experiments via intracardiac punction and blood withdrawal under ketamine/xylazine anaesthesia.
ELISA plates were coated with 100 μl per well of either 1 μg/ml bCII (Chondrex, Inc.) or 1 μg/ml hFib (Millipore/Calbiochem) or 1 μg/ml citrullinated hFib (Cayman) or CCP peptide at a concentration of 10 μg/ml in coating solution for 1 h. The CCP peptide we used for the selected CCP assay had the following sequence: HQCHQEST(cit)GRSRGRCGRSGS (SEQ ID NO: 2), with disulphide bonds spanning C3-C16.
All subsequent procedures were performed at room temperature (RT) and incubations were done on a microtiter plate shaker. […] After washing, the POD was detected by incubation with 100 μl/well of TMB substrate (Thermo Scientific, #34029) until a maximal optical density (OD) of about 1 to 2 was reached. Finally, the colorimetric reaction was stopped with 100 μl/well stopping solution (1M H2SO4) and the OD determined at a wavelength of 450 nm with a reference wavelength of 595 nm with the Tecan Infinite F 200 plate reader.
For assessment of antibodies, various antigens were coated on ELISA plates, and the sera of the mice were added. Binding of antibodies to the antigens was then measured by adding anti-mouse antibodies labelled with POD.

[3] = 1 mg/kg i.v. on days 14, 35 and 56
[4] = 1 mg/kg i.v. on days 14, 35 and 56, vs NaCl

Row | Molecule | adverse effects ([1]; mouse, in vivo, 1 mg/kg) | ankle and tarsal joint histology (lymphocyte infiltrates, cartilage, pannus) [1, 3] | survival probability (Kaplan-Meier, log-rank) ([1]; 1 mg/kg i.v. on days 14, 35 and 56, mice killed when arthritis too severe) | overview of the paws: soft tissue enhancement and lymphocyte infiltration (HE sections) [1, 3] | arthritis score [1, 4] | antibody levels (anti-bCII, anti-hFib titers) [2] | paw swelling of tarsal joints ([1]; 1 mg/kg i.v. on days 14, 35 and 56, caliper, vs NaCl) | average histology score ([1]; 1 mg/kg i.v. on days 14, 35 and 56, right hind paw HE sections at day 84, score max 15, N=8) | antibody levels (anti-bCII, anti-hFib titers) ([2]; 1 mg/kg) | antibody levels (anti-bCII, anti-hFib titers) ([2]; listed as Peptide 905778, 1 mg/kg)
1 | Cc1cnc(NC(=O)C2=C(O)c3ccccc3S(=O)(=O)N2C)s1 [meloxicam, reference compound] | did not develop any adverse effects | – | – | – | – | – | – | – | – | –
2 | peptide 90091: non-fructosylated derivative of peptide 90578, amino sequence GEPGIAGFKGEQGPK (SEQ ID No: 1) (CARBOHYD (9)..(9); listed as Bos taurus) [reference compound] | – | less lymphocyte infiltrates, but also pannus formation and cartilage erosion | did not reveal a significant difference between groups | severely enhanced | seemed to enhance arthritis, but not significantly | not Affected by Treatment | – | – | – | –
3 | peptide 90578: GEPGIAGFKGEQGPK (SEQ ID NO: 1, bCII 256-270) with a D-fructosyl residue on the lysine at position 264 (position 9) (GEPGIAGFK(D‑fructosyl)GEQGPK; listed as Bos taurus) | – | the cartilage was intact and there were only a few lymphocyte infiltrates in the subchondral bone | – | less tissue enhancement and lymphocyte infiltration | tended to be less severe | – | significantly lower swelling on days 49 and 56 | 3.9 | this effect could not be found in the antibody levels | not Affected by Treatment
